In the experiment the test system is MYC expression. Briefly: Western blotting of MYC in BRAF V600E cancer cell lines. In kind it is cell-based, human. The note with it: four cancer cell lines harboring BRAF V600E; 0.5 uM PLX4032, 24 hours. As for the experimental part:
FIG. 3A-3C. MYC regulated TERT expression in a TERT promoter mutation-independent manner. (FIG. 3A) The four indicated cancer cell lines harboring BRAF V600E mutation were treated with 0.5 uM PLX4032 and/or 10 nM MYC-specific siRNA (siMYC) for 24 hours, which were then subjected to Western blotting (upper panel) and qRT-PCR (lower panel). The relative TERT mRNA expression was normalized to the control group. (FIG. 3B, 3C) Parental and BRAF V600E knock-in SW48 cells were treated with control siRNA (siControl) or MYC-specific siRNA (siMYC, 10 nM) for 48 h, followed by Western blotting (FIG. 3B) and luciferase reporter assays (FIG. 3C). *P<0.05, **P<0.01, ***P<0.001, by 2-tailed Student's t test. n.s., not significant. All the values represent the average standard deviation (SD) of triplicate samples from a typical experiment. Similar results were obtained in two additional independent experiments.
Cells were lysed in the RIPA buffer (#sc-24948; Santa Cruz Biotechnology, Santa Cruz, CA) with protease inhibitor cocktail (#P8340; Sigma-Aldrich) and phosphatase inhibitor cocktail (#P0044; Sigma-Aldrich) and Western blotting analysis was performed as we previously described^54. […] Signals were detected by SuperSignal™ West Pico PLUS Chemiluminescent Substrate (#34579; Thermo Fisher Scientific). […]
In general terms: A western blot detects proteins with antibodies after separation by electrophoresis.

Each structure is given as a SMILES string.

For `CCCS(=O)(=O)Nc1ccc(F)c(C(=O)c2c[nH]c3ncc(-c4ccc(Cl)cc4)cc23)c1F` [PLX4032], the MYC expression result was “suppressed MYC expression”.

The values are drawn from US11911356B2, “Regulation of mutant TERT by BRAF V600E/map kinase pathway through FOS/GABP in human cancer” (THE JOHNS HOPKINS UNIVERSITY, priority 2017, dated 2024).
